Data: patent publication US7220744B2, “Monocyclic substituted phenyl methanones” (Hoffman-La Roche Inc., priority 2005, dated 2007)

Target: T1, mGlyT-1b (Mus musculus, UniProt P28571)
T1 construct: host or cells: Flp-in-CHO cells (vendor and catalogue number are those of the host cell line)
T1 sequence (P28571 1-651 isoform P28571-2): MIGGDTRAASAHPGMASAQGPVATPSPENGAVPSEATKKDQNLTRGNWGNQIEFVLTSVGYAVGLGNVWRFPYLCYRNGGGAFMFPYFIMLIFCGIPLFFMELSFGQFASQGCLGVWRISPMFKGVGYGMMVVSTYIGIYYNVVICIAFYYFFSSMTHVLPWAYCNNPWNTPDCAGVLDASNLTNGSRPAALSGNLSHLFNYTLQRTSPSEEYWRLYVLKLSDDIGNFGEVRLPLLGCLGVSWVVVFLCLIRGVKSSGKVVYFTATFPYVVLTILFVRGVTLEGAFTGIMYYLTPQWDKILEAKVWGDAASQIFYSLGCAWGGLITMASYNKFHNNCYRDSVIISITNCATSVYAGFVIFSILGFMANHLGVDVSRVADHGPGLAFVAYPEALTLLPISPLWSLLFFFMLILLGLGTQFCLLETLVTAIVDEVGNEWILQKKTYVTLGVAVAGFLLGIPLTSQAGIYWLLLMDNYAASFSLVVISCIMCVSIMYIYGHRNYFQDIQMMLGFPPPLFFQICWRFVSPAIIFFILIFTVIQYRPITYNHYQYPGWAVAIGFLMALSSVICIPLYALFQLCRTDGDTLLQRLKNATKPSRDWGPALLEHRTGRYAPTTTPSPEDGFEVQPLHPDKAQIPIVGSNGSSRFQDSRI
Assay: Glycine Uptake Inhibition Assay (mGlyT-1b)
Assay type: cell-based
Details: inhibition of [3H]-glycine uptake in Flp-in-CHO cells transfected with mGlyT-1b cDNA; 20 min preincubation at 22° C.; read-out: IC50 (μM) at GlyT-1
Protocol: DMEM complete medium: Nutrient mixture F-12 (Gibco Life-technologies), fetal bovine serum (FBS) 5%, (Gibco life technologies), Penicillin/Streptomycin 1% (Gibco life technologies), Hygromycin 0.6 mg/ml (Gibco life technologies), Glutamine 1 mM Gibco life technologies)
Uptake buffer (UB): 150 mM NaCl, 10 mM Hepes-Tris, pH 7.4, 1 mM CaCl2, 2.5 mM KCl, 2.5 mM MgSO4, 10 mM (+) D-glucose.
Flp-in™-CHO (Invitrogen Cat n° R758-07) cells stably transfected with mGlyT1b cDNA.
Glycine Uptake Inhibition Assay (mGlyT-1b)
On day 1 mammalian cells, (Flp-in™-CHO), transfected with mGlyT-1b cDNA, were plated at the density of 40,000 cells/well in complete F-12 medium, without hygromycin in 96-well culture plates. On day 2, the medium was aspirated and the cells were washed twice with uptake buffer (UB). The cells were then incubated for 20 min at 22° C. with either (i) no potential competitor, (ii) 10 mM non-radioactive glycine, (iii) a concentration of a potential inhibitor. A range of concentrations of the potential inhibitor was used to generate data for calculating the concentration of inhibitor resulting in 50% of the effect (e.g. IC50, the concentration of the competitor inhibiting glycine uptake of 50%). A solution was then immediately added containing [^3H]-glycine 60 nM (11–16 Ci/mmol) and 25 μM non-radioactive glycine. The plates were incubated with gentle shaking and the reaction was stopped by aspiration of the mixture and washing (three times) with ice-cold UB. The cells were lysed with scintillation liquid, shaken 3 hours and the radioactivity in the cells was counted using a scintillation counter.

Row | IC50 [µM] | Structure (SMILES)
1 | 0.061 | CC(C)Oc1ccc(S(C)(=O)=O)cc1C(=O)N1CCN(c2ncc(S(=O)(=O)c3ccccc3)s2)CC1 [Example 4, [4-(5-Benzenesulfonyl-thiazol-2-yl)-piperazin-1-yl]-(2-isopropoxy-5-methanesulfonyl-phenyl)-methanone]
2 | 0.082 | CC(Oc1ccc(S(C)(=O)=O)cc1C(=O)N1CCN(c2ncc(C#N)s2)CC1)C(F)(F)F (stereo not drawn) [Example 10, 2-{4-[5-Methanesulfonyl-2-(2,2,2-trifluoro-1-methyl-ethoxy)-benzoyl]-piperazin-1-yl}-thiazole-5-carbonitrile]
3 | 0.083 | CS(=O)(=O)c1ccc(OCC2CCC2)c(C(=O)N2CCN(c3ncc(C#N)s3)CC2)c1 [Example 14, 2-[4-(2-Cyclobutylmethoxy-5-methanesulfonyl-benzoyl)-piperazin-1-yl]-thiazole-5-carbonitrile]
4 | 0.043 | CC(C)(C)COc1ccc(S(C)(=O)=O)cc1C(=O)N1CCN(c2ncc(C#N)s2)CC1 [Example 19, 2-{4-[2-(2,2-Dimethyl-propoxy)-5-methanesulfonyl-benzoyl]-piperazin-1-yl}-thiazole-5-carbonitrile]
5 | 0.017 | CC(C)(C)COc1ccc(S(C)(=O)=O)cc1C(=O)N1CCN(c2ncc(S(=O)(=O)c3ccccc3)s2)CC1 [Example 29, [4-(5-Benzenesulfonyl-thiazol-2-yl)-piperazin-1-yl]-[2-(2,2-dimethyl-propoxy)-5-methanesulfonyl-phenyl]-methanone]
6 | 0.023 | CS(=O)(=O)c1ccc(OC2CCCC2)c(C(=O)N2CCN(c3ncc(S(=O)(=O)c4ccccc4)s3)CC2)c1 [Example 30, [4-(5-Benzenesulfonyl-thiazol-2-yl)-piperazin-1-yl]-(2-cyclopentyloxy-5-methanesulfonyl-phenyl)-methanone]
7 | 0.07 | CCCCS(=O)(=O)c1cnc(N2CCN(C(=O)c3cc(S(C)(=O)=O)ccc3OC(C)C(F)(F)F)CC2)s1 (stereo not drawn) [Example 39, {4-[5-(Butane-1-sulfonyl)-thiazol-2-yl]-piperazin-1-yl}-[5-methanesulfonyl-2-(2,2,2-trifluoro-1-methyl-ethoxy)-phenyl]-methanone]
8 | 0.018 | CCCCS(=O)(=O)c1cnc(N2CCN(C(=O)c3cc(S(C)(=O)=O)ccc3OC3CCCC3)CC2)s1 [Example 41, {4-[5-(Butane-1-sulfonyl)-thiazol-2-yl]-piperazin-1-yl}-(2-cyclopentyloxy-5-methanesulfonyl-phenyl)-methanone]
9 | 0.046 | CCCCS(=O)(=O)c1cnc(N2CCN(C(=O)c3cc(S(C)(=O)=O)ccc3OCC(C)(C)C)CC2)s1 [Example 42, {4-[5-(Butane-1-sulfonyl)-thiazol-2-yl]-piperazin-1-yl}-[2-(2,2-dimethyl-propoxy)-5-methanesulfonyl-phenyl]-methanone]
10 | 0.073 | Cc1sc(N2CCN(C(=O)c3cc(S(C)(=O)=O)ccc3OC(C)C(F)(F)F)CC2)nc1C(F)(F)F (stereo not drawn) [Example 55, [5-Methanesulfonyl-2-(2,2,2-trifluoro-1-methyl-ethoxy)-phenyl]-[4-(5-methyl-4-trifluoromethyl-thiazol-2-yl)-piperazin-1-yl]-methanone]
11 | 0.098 | CC(Oc1ccc(S(C)(=O)=O)cc1C(=O)N1CCN(c2ncc(C(F)(F)F)s2)CC1)C(F)(F)F (stereo not drawn) [Example 59, [5-Methanesulfonyl-2-(2,2,2-trifluoro-1-methyl-ethoxy)-phenyl]-[4-(5-trifluoromethyl-thiazol-2-yl)-piperazin-1-yl]-methanone]
12 | 0.061 | CC(C)(Oc1ccc(S(C)(=O)=O)cc1C(=O)N1CCN(c2ncc(C(F)(F)F)s2)CC1)C(F)(F)F [Example 66, [5-Methanesulfonyl-2-(2,2,2-trifluoro-1,1-dimethyl-ethoxy)-phenyl]-[4-(5-trifluoromethyl-thiazol-2-yl)-piperazin-1-yl]-methanone]
13 | 0.046 | C[C@H](Oc1ccc(S(C)(=O)=O)cc1C(=O)N1CCN(c2ncc(C(F)(F)F)s2)CC1)C(F)(F)F [Example 67, [5-Methanesulfonyl-2-((S)-2,2,2-trifluoro-1-methyl-ethoxy)-phenyl]-[4-(5-trifluoromethyl-thiazol-2-yl)-piperazin-1-yl]-methanone]
14 | 0.082 | C[C@@H](Oc1ccc(S(C)(=O)=O)cc1C(=O)N1CCN(c2ncc(C(F)(F)F)s2)CC1)C(F)(F)F [Example 68, [5-Methanesulfonyl-2-((R)-2,2,2-trifluoro-1-methyl-ethoxy)-phenyl]-[4-(5-trifluoromethyl-thiazol-2-yl)-piperazin-1-yl]-methanone]
15 | 0.056 | CC(Oc1ccc(S(C)(=O)=O)cc1C(=O)N1CCN(c2ncc(CC(F)(F)F)s2)CC1)C(F)(F)F (stereo not drawn) [Example 69, [5-Methanesulfonyl-2-(2,2,2-trifluoro-1-methyl-ethoxy)-phenyl]-{4-[5-(2,2,2-trifluoro-ethyl)-thiazol-2-yl]-piperazin-1-yl}-methanone]
16 | 0.057 | C[C@H](Oc1ccc(S(C)(=O)=O)cc1C(=O)N1CCN(c2ncc(CC(F)(F)F)s2)CC1)C(F)(F)F [Example 70, [5-Methanesulfonyl-2-((S)-2,2,2-trifluoro-1-methyl-ethoxy)-phenyl]-{4-[5-(2,2,2-trifluoro-ethyl)-thiazol-2-yl]-piperazin-1-yl}-methanone]
17 | 0.069 | C[C@@H](Oc1ccc(S(C)(=O)=O)cc1C(=O)N1CCN(c2ncc(CC(F)(F)F)s2)CC1)C(F)(F)F [Example 71, [5-Methanesulfonyl-2-((R)-2,2,2-trifluoro-1-methyl-ethoxy)-phenyl]-{4-[5-(2,2,2-trifluoro-ethyl)-thiazol-2-yl]-piperazin-1-yl}-methanone]
18 | 0.031 | CCS(=O)(=O)c1ccc(OC(C)C(F)(F)F)c(C(=O)N2CCN(c3ncc(C(F)(F)F)s3)CC2)c1 (stereo not drawn) [Example 74, [5-Ethanesulfonyl-2-(2,2,2-trifluoro-1-methyl-ethoxy)-phenyl]-[4-(5-trifluoromethyl-thiazol-2-yl)-piperazin-1-yl]-methanone]
19 | 0.067 | Cc1nc(N2CCN(C(=O)c3cc(S(C)(=O)=O)ccc3OC(C)C)CC2)sc1C(F)(F)F [Example 79, (2-Isopropoxy-5-methanesulfonyl-phenyl)-[4-(4-methyl-5-trifluoromethyl-thiazol-2-yl)-piperazin-1-yl]-methanone]
20 | 0.046 | Cc1nc(N2CCN(C(=O)c3cc(S(C)(=O)=O)ccc3O[C@@H](C)C(F)(F)F)CC2)sc1C(F)(F)F [Example 80, [5-Methanesulfonyl-2-((S)-2,2,2-trifluoro-1-methyl-ethoxy)-phenyl]-[4-(4-methyl-5-trifluoromethyl-thiazol-2-yl)-piperazin-1-yl]-methanone]

Row | Structure (SMILES) | IC50 [µM]
21 | CC(C)COc1ccc(S(C)(=O)=O)cc1C(=O)N1CCN(c2ncc(C#N)s2)CC1 [Example 16, 2-[4-(2-Isobutoxy-5-methanesulfonyl-benzoyl)-piperazin-1-yl]-thiazole-5-carbonitrile] | 0.065
22 | CC(C)COc1ccc(S(C)(=O)=O)cc1C(=O)N1CCN(c2ncc(S(=O)(=O)c3ccccc3)s2)CC1 [Example 31, [4-(5-Benzenesulfonyl-thiazol-2-yl)-piperazin-1-yl]-(2-isobutoxy-5-methanesulfonyl-phenyl)-methanone] | 0.024
23 | CC[C@@H](C)Oc1ccc(S(C)(=O)=O)cc1C(=O)N1CCN(c2ncc(C(F)(F)F)s2)CC1 [Example 77, (2-((R)-sec-Butoxy)-5-methanesulfonyl-phenyl)-[4-(5-trifluoromethyl-thiazol-2-yl)-piperazin-1-yl]-methanone] | 0.1
24 | CC[C@H](C)Oc1ccc(S(C)(=O)=O)cc1C(=O)N1CCN(c2ncc(C(F)(F)F)s2)CC1 [Example 78, (2-((S)-sec-Butoxy)-5-methanesulfonyl-phenyl)-[4-(5-trifluoromethyl-thiazol-2-yl)-piperazin-1-yl]-methanone] | 0.089
